System: T1, F1 ^anc_core
T1 construct: gene atpD; alpha: TF1 residues 1-94 + alpha^anc NBD/CTD; beta: TF1 residues 1-78 + beta^anc NBD/CTD; N-terminal His-tags; alpha3beta3gamma; expressed in E. coli JM103 delta-unc; with ATP synthase gamma chain
Experiment: single-molecule rotation assay, […] nm gold colloid, Michaelis-Menten fit
Assay type: biochemical, synthetic construct
Conditions: 50 mM Hepes-KOH pH 7.5, 100 mM KCl

| SMILES | Km (5 mM MgCl2, room temperature) | Km (5 mM MgCl2, ATP-regenerating system, room temperature) |
| --- | --- | --- |
| Nc1ncnc2c1ncn2[C@@H]1O[C@H](COP(=O)(O)OP(=O)(O)OP(O)(O)=S)[C@@H](O)[C@H]1O [ATPγS] | 0.68 µM |  |
| Nc1ncnc2c1ncn2[C@@H]1O[C@H](COP(=O)(O)OP(=O)(O)OP(=O)(O)O)[C@@H](O)[C@H]1O [ATP] |  | 2.6 µM |

From publication PMC12550136, “Functional and structural characterization of F1 ‐ATPase with common ancestral core domains in stator ring” (Protein Science : A Publication of the Protein Society, 2025)
